{"source": "patent US20220119777A1", "about": "“CHEMILUMINESCENCE PHOTODYNAMIC VIRUS INACTIVATION OF RED BLOOD CELLS” (priority 2020, published 2022)", "test_system": "bovine viral diarrhea virus (BVDV)", "experiment": "Hypericin-Luciferase inactivation of BVDV spiked into human red blood cell concentrate, TCID50 titration (CPE)", "assay_type": "cell-based", "conditions": "for Unwashed Titer / Unwashed VRF / Washed Titer / Combined VRF / Washed VRF: no luciferase system; for Unwashed Titer: RT 2 h dark; for Unwashed VRF / Washed VRF: vs RBC control; for Combined VRF: washed sample vs unwashed RBC control", "protocol": "Ten different combinations of Dulbecco's modified eagle medium without calcium and magnesium (DMEM (—Ca++, —Mg++)), RBCC, virus, hypericin, luciferin, ATP and luciferase were prepared to all contain equivalent titers of BVDV calculated to be 6.48 log 10TCID50/mL based on the titer of the original virus stock. The concentrations of hypericin tested were 0, 40 and 200 μg/mL. Luciferase was tested at 0, 0.8 and 4.0 μM. Luciferin and ATP were present at 80 and 800 μM respectively when luciferase was present and absent in the absence of luciferase.\nThe components were mixed and incubated at room temperature (RT) for 2 hours in the dark followed by titration of unwashed and washed samples as previously described. Washing rows of wells with dilutions 1 and 2 was performed 3 days post-infection. Final cytopathic effects (CPEs) were read 10 days post-infection.\nEleven different combinations of DMEM (—Ca++, —Mg++), RBCC, virus, hypericin, luciferin, adenosine triphosphate (ATP) and luciferase were prepared to all contain equivalent titers of BVDV calculated to be 6.48 log 10TCID50/mL (logs) based on the titer of the original virus stock. The concentrations of hypericin tested were 10, 20 and 40 μg/mL. Luciferase was tested at 0.16, 0.32 and 0.8 μM. Luciferin and ATP were present at 80 and 800 μM, respectively.\nThe components were mixed and incubated at RT for 2 hours in the dark followed by titration of unwashed and washed samples as previously described. Washing of rows of wells with dilutions 1 and 2 was performed […] post-infection. Final CPE were read 10 days post-infection.\nTen different combinations of DMEM (—Ca++, —Mg++), RBCC, virus, hypericin, luciferin, adenosine triphosphate (ATP) and luciferase were prepared to all contain equivalent titers of BVDV calculated to be 6.48 log10 TCID50/mL (logs) based on the titer of the original virus stock. The concentrations of hypericin tested were 40, 80 and 120 μg/mL. Luciferase was tested at 0.16, 0.32 and 0.8 μM. Luciferin and ATP were present at 80 and 800 μM, respectively.\nThe compounds were mixed and incubated at RT for 2 hours in the dark followed by titration of unwashed and washed samples as previously described. Washing rows of wells with dilutions 1 and 2 was performed 2 days post-infection. Final CPEs were read 10 days post-infection.", "key": {"[1]": {"conditions": "Ex 1 HH-LN: hypericin 200 μg/mL"}, "[2]": {"conditions": "Ex 1 HH-LN: hypericin 200 μg/mL, washed"}, "[3]": {"conditions": "Ex 1 HL-LN: hypericin 40 μg/mL, washed"}}, "data": [{"smiles": "Cc1cc(O)c2c(=O)c3c(O)cc(O)c4c5c(O)cc(O)c6c(=O)c7c(O)cc(C)c8c1c2c(c34)c(c78)c65", "note": "[Hypericin, hypericin]", "values": [{"measurement": "Unwashed Titer", "setting": "[1]", "result": 3.10, "unit": "log10TCID50/mL"}, {"measurement": "Unwashed VRF", "setting": "[1]", "result": 3.25, "unit": "log TCID50"}, {"measurement": "Washed Titer", "setting": "[2]", "result": 2.48, "unit": "log10TCID50/mL"}, {"measurement": "Combined VRF", "setting": "[1]", "result": 3.87, "unit": "log TCID50"}, {"measurement": "Washed VRF", "setting": "[2]", "result": 1.50, "unit": "log TCID50"}, {"measurement": "Unwashed Titer", "setting": "Ex 1 HL-LN: hypericin 40 μg/mL", "result": 3.48, "unit": "log10TCID50/mL"}, {"measurement": "Unwashed VRF", "setting": "Ex 1 HL-LN: hypericin 40 μg/mL", "result": 2.87, "unit": "log TCID50"}, {"measurement": "Washed Titer", "setting": "[3]", "result": "<2.34", "unit": "log10TCID50/mL"}, {"measurement": "Combined VRF", "setting": "Ex 1 HL-LN: hypericin 40 μg/mL", "result": ">4.01", "unit": "log TCID50"}, {"measurement": "Washed VRF", "setting": "[3]", "result": ">1.64", "unit": "log TCID50"}, {"measurement": "VRFs, unwashed samples", "setting": "Example 1, all hypericin treated unwashed samples, low (40 μg/mL) and high (200 μg/mL) doses", "result": "~3", "unit": "logs"}, {"measurement": "combined VRFs", "setting": "Example 3, hypericin 40 μg/mL, all levels of luciferase, washed", "result": "> 3.51", "unit": "logs"}, {"measurement": "VRF, washed samples", "setting": "Example 3, hypericin dose of 40 μg/mL, all levels of luciferase, washed, complete inactivation/elimination", "result": "> 1.14", "unit": "logs"}, {"measurement": "optimal dose of hypericin for BVDV", "setting": "summary of Examples 1-3, with different doses of luciferase", "result": 40, "unit": "µg/mL"}]}]}
